Consider 6 compounds from patent US4935419A, “Novel 1-piperazinecarboxamide derivatives” (priority 1983, dated 1990).

The subject of test [1] is female NMRI mice (writhing behaviour). In words: Writhing test (acetic acid). The settings on record: Mus musculus, sc, 20 minutes before acetic acid (0.5%, 15 ml/kg i.p.), dose blocking writhing in 50% of the animals. It counts as in vivo. On the procedure: The writhing test is a frequently used test of analgetic properties (Witkin, L. B. et al., J. Pharmacol. Exp. Ther. 133, 400 (1961)). If acetic acid (0.5%, 15 ml/kg) is injected intraperitoneally in mice (NMRI) they will without exception develop a writhing behaviour characterized by stretching their hind legs. The drugs to be tested were administered subcutaneously to 6 female mice at each dose 20 minutes before the injection of the acetic acid. After 10 minutes the behaviour of the mice was studied in 5 minutes. The ED50 -value is the dose blocking the writhing behaviour in 50% of the animals during the 5 minutes study period. [drawing 12]
On the technique in general: An intraperitoneal irritant provokes the stretching counted in writhing tests.

The test system of test [2] is male NMRI mice (isolation induced aggressive behaviour). In words: Isolation induced aggressive behaviour test. It counts as in vivo. The settings on record: Mus musculus, sc, read-out: ED50, isolation induced aggressive behaviour test. From the text:
Test 1: Isolation induced aggressive behaviour test
Male mice subjected to prolonged isolation develop aggressive behaviour against each other when paired (Yen, C. Y. et al., Arch. Int. Pharmacodyn. 123, 179, (1959): Valzelli, L., Adv. Pharmacol. 5, 79 (1967)). […] The clinical correlation of this test indicates tranquillizing and anxiolytic activities as well as antiaggressive properties as such (Duncan, R. L. et al., J Med. Chem. 13, 1 (1970)).
This type of aggression is interesting because it is known that this kind of emotional behaviour might be located in limbic structures in the brain (MacLean, P.D., Psychosom. Med. 11, 338 (1949)).
Every week male NMRI mice, weighing 20-22 g, were isolated in Makrolon cages for three weeks with diet and water ad libitum. A piece of cardboard was placed between the cages to prevent visual contact.
To test aggressiveness the mice were paired in a neutral area, a beaker (14 cm high and diameter 14 cm). A pair is considered aggressive if both the animals show clear signs of fighting within 5 minutes. This fighting is characterized by biting and vocalization. […] Animals showing no aggression are discarded. […] The test substance is administered s.c. (0.2-0.4 ml/20 g). The mice are paired 0.5 hour after the injection for trials of 5 minutes duration.
The ED50 -value (mg/kg) reported is the dose inhibiting aggressive behaviour among 50 per cent of the pairs 0.5 hour after drug administration.

The test system of test [3] is female rats (conditioned avoidance response). In words: Conditioned avoidance response (CAR). It counts as in vivo. The settings on record: Rattus norvegicus, sc, 1.5 h, read-out: ED50, conditioned avoidance response. On the procedure:
Test 2: Conditioned avoidance response (CAR)
The effect of the test compounds on CAR was evaluated in a shuttle box, manufactured by Ugo Basile, Italy. The female rats, weighing 150 g, were trained to avoid an electric shock (unconditioned stimulus--US) by escaping from one compartment to the other when the light from a 15W lamp is switched on (conditioned stimulus--CS). When they responded to the CS, a conditioned response (CR) was considered to have been elicited. Rats showing a stable CR of more than 80% after a three weeks' training program were used in the experiments. Groups of six rats were subcutaneously administered with various doses of the test compounds. 11/2 hours after the administration each rat was placed in the experimental box and the effect on CR was evaluated. ED50 -values refer to the dose inhibiting CR in 50% of the animals. The mechanisms regulating conditioned responses are very complex. Both catecholaminergic and hormonal factors are of importance.

In test [4] the test system is male NMRI mice (isolation induced aggressive behaviour). The settings on record: result in words; clinically used drugs; cited from earlier work.
[5] abbreviates: mice, dose inhibiting aggressive behaviour among 50 per cent of the pairs 0.5 hour after administration.
Where [6] appears, read: s.c., rats, dose inhibiting CR in 50% of the animals, 1 1/2 hours after administration.

The structures appear in SMILES notation. Structures can show the parent of a compound that is named as a salt. Where two headings read alike, the source gives them in different places.

As for `CCNC(=O)N1CCN(CCCC(=O)c2ccc(F)cc2)CC1` [1:3, 4-.vertline.4-(p-fluorophenyl)-4-oxobutyl.vertline.-N-ethyl-1-piperazinecarboxamide hydrochloride], the ED50 in test [1] was found to be 1.9 mg/kg; in test [2] (setting [5]) it was 1.7 mg/kg; in test [3] (setting [6]), 12 mg/kg.
For `CCNC(=O)N1CCN(CCCCc2ccc(F)cc2)CC1` [1:15, 4-.vertline.4-(p-fluorophenyl)butyl.vertline.-N-ethyl-1-piperazinecarboxamide hydrochloride] the same measures were 3.7 mg/kg, 3.5 mg/kg and 7.9 mg/kg.
Turning to `CN(C)CCC=C1c2ccccc2CCc2ccccc21` [Amitriptyline], the ED50 in test [2] (setting [5]) was 5 mg/kg.
Take `CN(C)CCCN1c2ccccc2Sc2ccc(Cl)cc21` [Chlorpromazine]: the 50% effective dose (ED50) is 1.4 mg/kg in test [2] (0.5 h) and 3.5 mg/kg in test [3].
As for `CN1C(=O)CN=C(c2ccccc2)c2cc(Cl)ccc21` [Diazepam], the “activity on isolation induced aggressive behaviour, known drugs” value in test [4] was “active on this kind of aggressive behaviour”.
Turning to `CSc1ccc2c(c1)N(CCC1CCCCN1C)c1ccccc1S2` (stereo not drawn) [Thioridazine], the values for the ED50 in test [2] (setting [5]) and in test [3] (setting [6]) were 5 mg/kg and 41 mg/kg, respectively.

As usually defined, the ED50 is the midpoint of the dose-response relation.
